According to patent publication US20150183743A1, “COMPOUND AND USE OF COMPOUND TO PREPARE A RADIOLABELLED COMPOUND” (STICHTING VU-VUMC, priority 2012, published 2015):
Structures can show the parent of a compound that is named as a salt.

What was measured:
[1] = target: T1, ifenprodil binding site of NR2B subunit containing NMDA receptors (Rattus norvegicus, UniProt P35439+Q00960); assay: Competition binding assay against [3H]ifenprodil on rat forebrain membranes; conditions: displacement of 5 nM [3H]ifenprodil; mean±SEM of 2-6 determinations in triplicate
T1 construct: 400 μl of the membrane suspension, containing a total amount of 2.5 mg original wet weight of tissue; from tissue; host or cells: rat forebrain membranes
Protocol: Male Wistar rats (180-200 g) were killed by decapitation. The forebrains were rapidly removed and homogenized using a DUALL tissue homogenizer (10 strokes, 2000 rpm), in a 10-fold excess (v/w) of ice-cold 0.25 M sucrose. The nuclei and cell debris were removed by centrifugation (10 min×400×g), in a Beckman refrigerated ultracentrifuge (rotor 60Ti). The resulting pellet was rehomogenized in 5 vol 0.25 sucrose and recentrifuged. The combined supernatants were diluted in Tris-acetate buffer (50 mM, pH 7.4) to a final dilution of 40 v/w, and centrifuged for 30 min×200,000×g, in order to obtain membranes from the cell surface, mitochondrial, and microsomal fractions. The pellet was resuspended in 20 volumes of Tris-HCl+0.01% Triton buffer (pH 7.4), kept at 37° C. for 10 min, and recentrifuged. The final pellet was suspended in Tris-HCl buffer (dilution 5, pH 7.4), and stored at −80° C. in 5 ml aliquots. On the day of each experiment, membranes were thawed to room temperature and washed twice by centrifugation (30 min×200,000×g). After the final centrifugation, pellets were suspended in 80 volumes (v/w) of 50 mM Tris-HCl buffer (pH 7.4).
Competition binding experiments were carried out on ice, in a final volume of 500 μl assay buffer (50 mM Tris-HCl, pH 7.4), containing 5 μM GBR 12909 to block […] binding. The incubation mixture was composed of 400 μl of the membrane suspension, containing a total amount of 2.5 mg original wet weight of tissue, 50 μl of [^3H]ifenprodil, and 5 μl of unlabelled drug solution (final DMSO concentration: 1%). Nonspecific binding was determined in the presence of 10 μM Ro 25-6981. Incubations were terminated after 2 hr by filtration through 0.3% PEI-embedded Whatman GF/B filters, using a 48-well Brandel harvester. The filters were washed three times with 3 ml of ice cold Tris-HCl buffer (pH 7.4), and radioactivity was determined by liquid scintillation spectrometry in 5 ml of Optiphase-HiSafe 3, at an efficiency of 40%.
Ki values were determined by nonlinear regression analysis using the equation: log EC50=log [10̂log Ki*(1+RadioligandNM/HotKdNM)], (GraphPad Software Inc., San Diego, Calif.).

[2] = target: T2, NR2B site of NMDA receptors (Mus musculus, UniProt P35438+Q01097); assay: In vitro autoradiography of [11C]HC-242 on mouse brain sections (non-specific: 1 μM Ro25-6981); type: binding, B6C3F1/J mice
T2 construct: from tissue; host or cells: mouse brain (sections in vitro; whole brain in vivo)
Protocol: 20 μm thick coronal brain sections were thawed from −20° C. to room temperature, pre-washed 2×10 min in assay buffer (50 mM Tris-HCl, pH 7.4), and dried. […] To determine non-specific binding, a series of immediately adjacent brain sections was incubated in the same buffer, in the presence of 1 μM Ro25-6981. Incubations were terminated by 1 min washing into ice-cold assay buffer (pH 7.4), followed by a rapid rinse in ice-cold demi water. The sections were then air dried and opposed overnight to Kodak BioMax MR-1 film, which was developed in Kodak D19 developer and fixed with Kodak rapid fixer (Sigma-Aldrich, Zwijndrecht, the Netherlands). […] Specific binding was quantified following the subtraction of […] binding images.

[3] = target: T2, NR2B site of NMDA receptors; assay: Blocking of [11C]HC-242 brain uptake by Ro25-6981 in anaesthetized mice (ex vivo autoradiography); parameters: species or system B6C3F1/J mice; conditions: for mean % change: blocked (Ro25-6981) vs unblocked
Protocol: 15 min after radiotracer injection, mice were killed by cervical dislocation, and the brains were removed, frozen in liquid nitrogen and processed for quantitative autoradiography. 20 μm coronal brain sections from control and Ro25-6981 treated mice were obtained at −21° C. in a Leica CM3050S cryostat (Leica Microsystems, Rijswijk, the Netherlands), and were immediately opposed to phosphor storage screens. The screens were read in a Storm™ 860 Phosphorimager on the following day, and the images obtained were analyzed using ImageQuant TL 8.1 software (GE Healthcare Europe GmbH, Diegem, Belgium). A series of immediately adjacent brain sections were opposed to Kodak Biomax MR-1 film, which was developed after overnight exposure, to obtain high resolution images. […] Analysis of radiotracer uptake in control and blocked mice across different brain regions was performed using two-way ANOVA.

[4] = Biodistribution of [11C]HC-242 in anaesthetized mice; type: in vivo, B6C3F1/J mice
Protocol: Animals were anaesthetized with a 1:2:1 mixture of ffm [fentanyl/fluanisone (Hypnorm™; Vetapharma, Leeds, UK), sterile water, midazolam (Dormicum™; Actavis, Harnarfjordur, Iceland)]. The anaesthetic was administered intraperitoneally (11 ml/kg), 5 min prior to radiotracer administration. […] Following the injections, mice were killed by cervical dislocation at 5, 15, 30, or 60 min (n=4/time point). At each time point, blood was obtained by heart punctures and selected organs, including the heart, liver, kidneys, lungs and brain were removed. The brain was further dissected into frontal cortex, olfactory tubercle, striatum, cerebral cortex (bregma 1.70-0.02 mm), entorhinal cortex, hippocampus, hypothalamus, cerebellum, and pons/medulla oblongata. All organs and brain areas were weighed, and recovered radioactivity was determined in a 1282 Compugamma CS (LKB Wallac, Turku, Finland), using 5×10 μl aliquots of the injected formulation as standard. Results are expressed as the differential absorption ratio (DAR): (cpm recovered/g tissue)/(cpm injected/g body weight). Two-way repeated measures ANOVA, followed by Fisher's LSD post-hoc comparisons, was used for analysis of radiotracer uptake in different brain regions (or organs), at different time points.

[5] = Determination of Log Doct,7.4; type: physicochemical; conditions: 1-octanol / 0.2M phosphate buffer pH 7.4, room temperature, triplicate
Protocol: The distribution of the radio labelled compounds between 1-octanol and 0.2M phosphate buffer (pH=7.4) was measured in triplicate at room temperature. Briefly, 1 mL of a 20 MBq/mL solution of the radio labelled compound in 0.2M phosphate buffer (pH=7.4) was vigorously mixed with 1 mL of 1-octanol for 1 min at room temperature using a vortex. After a settling period of 30 min, five samples of 100 μL were taken from both layers. For determining recovery, 5 samples of 100 μL were taken from the 20 MBq/mL solution. All samples were counted for radioactivity. The Log Doct,7.4 value was calculated according to Log Doct,7.4=^10Log(Aoct/Abuffer), where Aoct and Abuffer represent the average radioactivity counted of the 5 1-octanol and 5 buffer samples, respectively.

T2 sequence (Q01097 27-1482, other chains not shown): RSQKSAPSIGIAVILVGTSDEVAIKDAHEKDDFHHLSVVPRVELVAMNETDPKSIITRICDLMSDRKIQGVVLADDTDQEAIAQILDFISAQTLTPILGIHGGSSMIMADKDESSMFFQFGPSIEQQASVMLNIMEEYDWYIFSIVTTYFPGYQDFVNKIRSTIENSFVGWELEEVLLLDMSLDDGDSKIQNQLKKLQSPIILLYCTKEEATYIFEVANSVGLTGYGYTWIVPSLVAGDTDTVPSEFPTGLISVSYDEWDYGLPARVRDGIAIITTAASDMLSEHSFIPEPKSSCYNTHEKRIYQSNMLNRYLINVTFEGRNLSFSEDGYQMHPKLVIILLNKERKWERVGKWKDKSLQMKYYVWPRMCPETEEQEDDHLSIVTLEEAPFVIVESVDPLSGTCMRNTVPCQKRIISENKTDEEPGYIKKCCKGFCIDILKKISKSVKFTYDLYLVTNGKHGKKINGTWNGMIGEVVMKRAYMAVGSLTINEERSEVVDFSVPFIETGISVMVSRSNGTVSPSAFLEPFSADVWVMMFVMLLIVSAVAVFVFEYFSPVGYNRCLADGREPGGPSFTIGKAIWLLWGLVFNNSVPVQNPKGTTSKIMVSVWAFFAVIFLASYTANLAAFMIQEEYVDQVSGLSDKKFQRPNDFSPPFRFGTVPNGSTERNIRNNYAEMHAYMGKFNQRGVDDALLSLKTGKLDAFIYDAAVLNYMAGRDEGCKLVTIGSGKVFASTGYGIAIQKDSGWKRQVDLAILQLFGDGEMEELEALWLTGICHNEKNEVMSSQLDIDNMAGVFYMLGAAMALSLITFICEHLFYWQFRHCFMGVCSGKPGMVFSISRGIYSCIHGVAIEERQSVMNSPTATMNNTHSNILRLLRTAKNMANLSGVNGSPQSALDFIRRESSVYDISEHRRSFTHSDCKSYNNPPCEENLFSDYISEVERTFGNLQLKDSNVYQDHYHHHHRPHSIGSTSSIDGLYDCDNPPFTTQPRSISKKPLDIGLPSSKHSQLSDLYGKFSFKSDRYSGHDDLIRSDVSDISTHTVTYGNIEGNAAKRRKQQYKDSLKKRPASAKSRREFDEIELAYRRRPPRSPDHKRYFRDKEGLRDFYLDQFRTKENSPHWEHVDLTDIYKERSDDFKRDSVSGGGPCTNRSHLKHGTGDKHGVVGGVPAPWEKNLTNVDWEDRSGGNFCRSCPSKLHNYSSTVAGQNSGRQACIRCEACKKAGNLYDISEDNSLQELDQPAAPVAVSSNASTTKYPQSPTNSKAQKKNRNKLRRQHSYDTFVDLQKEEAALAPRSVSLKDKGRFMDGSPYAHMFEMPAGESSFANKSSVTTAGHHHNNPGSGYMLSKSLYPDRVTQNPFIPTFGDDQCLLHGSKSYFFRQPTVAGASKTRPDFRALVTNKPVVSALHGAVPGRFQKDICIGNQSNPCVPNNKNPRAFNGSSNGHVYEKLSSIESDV
T1 sequence (Q00960 27-1482, other chains not shown): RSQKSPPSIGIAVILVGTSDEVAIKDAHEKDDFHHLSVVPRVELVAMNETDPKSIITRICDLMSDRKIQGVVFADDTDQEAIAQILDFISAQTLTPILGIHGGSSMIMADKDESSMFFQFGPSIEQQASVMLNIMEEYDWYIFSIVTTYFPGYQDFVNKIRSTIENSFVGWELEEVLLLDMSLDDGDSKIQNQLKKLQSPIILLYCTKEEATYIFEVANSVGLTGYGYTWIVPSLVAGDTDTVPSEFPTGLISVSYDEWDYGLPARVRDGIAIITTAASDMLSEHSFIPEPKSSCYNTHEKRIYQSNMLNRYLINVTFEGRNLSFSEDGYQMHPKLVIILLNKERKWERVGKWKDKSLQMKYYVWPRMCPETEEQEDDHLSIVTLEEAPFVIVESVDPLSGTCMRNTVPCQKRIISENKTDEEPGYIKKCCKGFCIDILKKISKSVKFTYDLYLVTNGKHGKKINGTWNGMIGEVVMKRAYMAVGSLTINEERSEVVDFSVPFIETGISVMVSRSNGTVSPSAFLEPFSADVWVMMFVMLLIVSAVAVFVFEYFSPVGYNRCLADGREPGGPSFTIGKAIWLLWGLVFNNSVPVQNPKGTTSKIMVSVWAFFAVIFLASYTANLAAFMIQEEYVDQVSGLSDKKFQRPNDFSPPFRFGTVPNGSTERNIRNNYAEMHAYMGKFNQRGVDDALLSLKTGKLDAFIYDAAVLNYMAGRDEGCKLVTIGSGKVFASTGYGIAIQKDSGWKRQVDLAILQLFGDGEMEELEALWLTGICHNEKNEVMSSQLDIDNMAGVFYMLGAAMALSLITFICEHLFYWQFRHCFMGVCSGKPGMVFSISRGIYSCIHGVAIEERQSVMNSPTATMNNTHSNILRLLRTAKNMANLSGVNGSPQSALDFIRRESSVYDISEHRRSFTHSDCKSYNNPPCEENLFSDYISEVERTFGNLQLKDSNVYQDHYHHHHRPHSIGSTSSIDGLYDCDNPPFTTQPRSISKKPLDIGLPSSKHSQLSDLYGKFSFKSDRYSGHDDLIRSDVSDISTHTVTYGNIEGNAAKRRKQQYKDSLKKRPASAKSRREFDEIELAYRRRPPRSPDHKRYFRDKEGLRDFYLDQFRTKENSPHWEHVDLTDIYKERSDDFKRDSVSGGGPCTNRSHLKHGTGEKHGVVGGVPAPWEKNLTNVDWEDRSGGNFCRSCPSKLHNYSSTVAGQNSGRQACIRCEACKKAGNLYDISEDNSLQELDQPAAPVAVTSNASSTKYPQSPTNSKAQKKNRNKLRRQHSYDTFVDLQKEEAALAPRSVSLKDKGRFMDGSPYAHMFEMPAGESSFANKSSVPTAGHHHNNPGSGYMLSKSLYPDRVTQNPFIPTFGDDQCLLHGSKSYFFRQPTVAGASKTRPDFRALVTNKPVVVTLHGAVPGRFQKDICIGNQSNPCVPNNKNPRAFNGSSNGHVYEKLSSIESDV

Oc1cc(F)ccc1-c1cncc(CNC2CCCC2)c1 [Example 5, 2-(5-((cyclopentylamino)methyl)pyridin-3-yl)-5-fluorophenol]
Ki [1]: 1300 ± 600 nM

Fc1ccc(-c2cncc(CNC3CCCC3)c2)cc1 [Example 10, N-((5-(4-fluorophenyl)pyridin-3-yl)methyl)cyclopentanamine dihydrochloride]
Ki [1]: 3.3 ± 1.9 nM

FCOc1cc(F)ccc1-c1cncc(CNC2CCCC2)c1 [Example 6, N-((5-(4-fluoro-2-(fluoromethoxy)phenyl)pyridin-3-yl)methyl)cyclopentanamine dihydrochloride]
Ki [1]: 15.4 ± 1.3 nM

Fc1ccc(-c2cncc(CNCC3CC3)c2)cc1 [Example 12, 1-cyclopropyl-N-((5-(4-fluorophenyl)pyridin-3-yl)methyl)methanamine dihydrochloride]
Ki [1]: 2.9 ± 0.3 nM

COc1cc(F)ccc1-c1cncc(CNCC2CC2)c1 [Example 2, 1-cyclopropyl-N-((5-(4-fluoro-2-methoxyphenyl)pyridin-3-yl)methyl)methanamine dihydrochloride]
Ki [1]: 8.7 ± 1.2 nM

[11CH3]Oc1cc(F)ccc1-c1cncc(CNC2CCCC2)c1 [[^11C]HC-242, N-((5-(4-fluoro-2-^11C-methoxyphenyl)pyridin-3-yl)methyl)cyclopentanamine]
mean percentage of specific binding ([2]; across all brain regions analyzed): 24.0±3.5%
Specific labelling ([2]; cerebral cortex, hippocampus, olfactory tubercle, striatum): high
percentage of specific binding ([2]; olfactory tubercle): 39.6±10.4%
Specific labelling ([2]; subthalamic brain regions): absent
Specific labelling ([2]; thalamus): low
percentage of specific binding ([2]; thalamus): 3.3±2.1%
mean % change ([3]; Experiment No 1, [11C]HC-242 23.7 μM at t0): −22.5%
mean % change ([3]; Experiment No 2, [11C]HC-242 2.6 μM at t0): −21.9%
mean % change ([3]; Experiment No 3, [11C]HC-242 14.6 μM at t0): 33.3%
mean decrease in radioactivity uptake induced by Ro25-6981 ([3]; Ro25-6981 10.0 mg/kg i.p. pretreatment, across all brain regions, pairs showing decrease): 22.3±1.9%
mean increase in radioactivity uptake induced by Ro25-6981 ([3]; Ro25-6981 10.0 mg/kg i.p. pretreatment, across all brain regions, pairs showing increase): 29.4±4.2%
DAR ([4]; blood, 5 min): 0.04±0.01
DAR ([4]; cerebellum, 15 min): 0.14±0.01
DAR ([4]; cerebral cortex, 15 min): 0.25±0.03
DAR ([4]; entorhinal cortex, 15 min): 0.62±0.22
DAR ([4]; frontal cortex, 15 min): 0.26±0.02
DAR ([4]; heart, 5 min): 0.19±0.04
DAR ([4]; hippocampus, 15 min): 0.33±0.03
DAR ([4]; liver, 5 min): 0.15±0.05
DAR ([4]; pons/medulla oblongata, 15 min): 0.14±0.02
DAR ([4]; striatum, 15 min): 0.24±0.03
logD [5]: 2.14 ± 0.02

Fc1ccc(-c2cccc(CNC3CCCC3)c2)cc1 [Example 11, N-((4′-fluoro-[1,1′-biphenyl]-3-yl)methyl)cyclopentanamine hydrochloride]
Ki [1]: 13.1 ± 1.8 nM

FCCOc1cc(F)ccc1-c1cncc(CNC2CCCC2)c1 [Example 7, N-((5-(4-fluoro-2-(2-fluoroethoxyl)phenyl)pyridin-3-yl)methyl)cyclopentanamine dihydrochloride]
Ki [1]: 156 ± 21.8 nM

COc1cc(F)ccc1-c1cccc(CNCC2CC2)c1 [Example 4, 1-cyclopropyl-N-((4′-fluoro-2′-methoxy-[1,1′-biphenyl]-3-yl)methyl)methanamine hydrochloride]
Ki [1]: 67.7 ± 8.1 nM
